According to patent EP4116414A1 (Centre National de la Recherche Scientifique, dated 2023):

Key:
[1] = target: Bacillus subtilis 168 formate dehydrogenase YjgCD heterodimer, wild type (6his-YjgC, SEQ ID NO: 1; YjgD, SEQ ID NO: 3) (Bacillus subtilis, UniProt O34720); conditions: formate oxidation, benzyl viologen as artificial electron acceptor, 25 mM CHES pH 10, 25°C
Description: FDH activity was determined using an Avaspec-2048L spectrometer (Avantes), inside an anaerobic glovebox filled with an atmosphere of 100% N2. The experiments were carried out at room temperature (25°C) with stirring.
For formate::benzyl viologen OR measurements, the reduction of 17.5 mM benzyl viologen (BV) was monitored at 600 nm (ε600 nm BV^+ = 7.0945 mM^-1 cm^-1) in 25 mM CHES pH 10 after addition of 50 mM sodium formate. One unit of oxidizing activity is defined as the amount of FDH capable of oxidizing 1 µmol of formate par min per mg of enzyme.
First the yjgCD operon was expressed under the control of an inducible promoter and the YjgC protein to which a 6-histidine tag was added at the N-terminus was purified.

[2] = target: T1, YjgC 6his-tagged in N-terminal (His-YjgC), Bacillus subtilis 168 (Bacillus subtilis 168, UniProt O34720 1-985); test: Ni-NTA affinity purification of His-YjgC, Coomassie-stained SDS-PAGE
T1 construct: Expressed from the yjgCD operon under a xylose inducible promoter in B. subtilis strain 4088 and purified on Ni-NTA; Carries Mo-bisPGD and Fe-S cofactors; also called 6his-YjgC; catalytic subunit of YjgCD; not shown: N-terminal 6-his tag followed by a TEV cleavage site
T1 sequence: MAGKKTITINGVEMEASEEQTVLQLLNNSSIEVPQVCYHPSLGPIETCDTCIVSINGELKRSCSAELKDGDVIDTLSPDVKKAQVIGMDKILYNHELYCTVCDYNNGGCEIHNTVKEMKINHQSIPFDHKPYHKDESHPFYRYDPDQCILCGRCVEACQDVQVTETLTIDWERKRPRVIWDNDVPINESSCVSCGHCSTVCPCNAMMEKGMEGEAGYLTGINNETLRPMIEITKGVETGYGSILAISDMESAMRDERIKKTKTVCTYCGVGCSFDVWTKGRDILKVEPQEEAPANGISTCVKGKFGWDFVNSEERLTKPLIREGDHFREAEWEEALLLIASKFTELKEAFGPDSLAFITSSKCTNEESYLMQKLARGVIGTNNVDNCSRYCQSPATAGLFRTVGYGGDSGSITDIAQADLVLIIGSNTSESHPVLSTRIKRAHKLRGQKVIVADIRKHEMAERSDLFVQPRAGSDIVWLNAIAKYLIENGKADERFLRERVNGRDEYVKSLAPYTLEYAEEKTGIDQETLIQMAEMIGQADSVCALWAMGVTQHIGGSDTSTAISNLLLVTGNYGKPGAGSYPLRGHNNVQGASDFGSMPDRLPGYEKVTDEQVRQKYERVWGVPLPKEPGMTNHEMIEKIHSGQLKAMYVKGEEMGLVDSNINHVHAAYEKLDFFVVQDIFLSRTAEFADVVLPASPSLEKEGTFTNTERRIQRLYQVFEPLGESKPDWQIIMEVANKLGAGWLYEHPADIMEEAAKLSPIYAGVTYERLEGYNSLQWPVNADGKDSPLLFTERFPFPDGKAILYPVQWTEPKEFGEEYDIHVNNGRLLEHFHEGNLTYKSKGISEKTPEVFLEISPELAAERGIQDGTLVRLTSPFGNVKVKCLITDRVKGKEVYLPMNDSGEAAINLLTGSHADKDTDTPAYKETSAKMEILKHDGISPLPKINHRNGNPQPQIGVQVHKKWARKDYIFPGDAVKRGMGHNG

Molecule | Kcat ([1]; anaerobic, YjgCD heterodimer MW 132 kDa) | Km ([1]; read-out: KM formate, anaerobic (100% N2)) | binding result [2]
formate | 96,1 ± 4 s^-1 | 5.1 mM | –
YjgD protein of Bacillus subtilis 168 (other, Untagged and co-expressed with His-YjgC from the yjgCD operon; Predicted monomeric mass 21.3 kDa; also called partner subunit of YjgCD) MAKAIKRIQKIEVTEEDQRKRDLREIEDALIDHKEAILETLHMLGHMNERGVLPLLRGLFGQGDKVLDILVKKADTEETANTLKNLLLLFGTLGMLDVKQLEPLILKVNAGVASAVEQKNSEEKTGYFDIIRSLKDPEINKSITLLFSFLKGMGQDTKELERTTQPPEHQKHHQEPREKRGMNKRD | – | – | binds
